Measured values reported in patent publication US20230310428A1, “EGFR INHIBITOR AND PREPARATION METHOD AND USE THEREOF” (HONGYUN BIOTECH CO., LTD., priority 2020, published 2023).
Where two headings read alike, the source gives them in different places.

Legend:
Test in all cases: Growth inhibitory activity of compounds on BaF3 cell lines stably transfected with kinase (MTS, 48 h)
Assay type in all cases: cell-based
[1] = biological target: T1, various mutants of kinase EGFR (BaF3 cell lines stably transfected with kinase) (Homo sapiens, UniProt P00533, T790M/C797S, form not given)
T1 construct: other: BaF3 cells stably transfected with EGFR Δ19Del/T790M/C797S; MTS, 48; other: BaF3 cell line stably transfected with EGFR Δ19Del/T790M/C7
In short: (§1)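 Growth is measured by MTS reduction (OD 490 nm) after 48 h compound exposure at up to 10 µM in 8 steps of 1/3. Inhibition is calculated against a 0.1% DMSO control and cell-free blank, and IC50 is derived from it.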

[2] = biological target: T2, various mutants of kinase EGFR (BaF3 cell lines stably transfected with kinase) (Homo sapiens, UniProt P00533, C797S/L858R/T790M)
T2 construct: expressed in transfected cells; host or cells: BaF3
In short: as §1

[3] = biological target: T3, various mutants of kinase EGFR (BaF3 cell lines stably transfected with kinase) (Homo sapiens, UniProt P00533, T790M, form not given)
T3 construct: other: BaF3 cells stably transfected with EGFR Δ19Del/T790M; MTS, 48 h; other: BaF3 cell line stably transfected with EGFR Δ19Del/T790M; MTS, 48
In short: as §1

[4] = biological target: T4, various mutants of kinase EGFR (BaF3 cell lines stably transfected with kinase) (Homo sapiens, UniProt P00533, L858R)
T4 construct: expressed in transfected cells; host or cells: BaF3
In short: as §1

[5] = biological target: T5, various mutants of kinase EGFR (BaF3 cell lines stably transfected with kinase) (Homo sapiens, UniProt P00533, L858R/T790M)
T5 construct: expressed in transfected cells; host or cells: BaF3
In short: as §1

[6] = biological target: T6, various mutants of kinase EGFR (BaF3 cell lines stably transfected with kinase) (Homo sapiens, UniProt P00533)
T6 construct: other: BaF3 cells stably transfected with EGFR Δ19Del; MTS, 48 h; other: BaF3 cell line stably transfected with EGFR Δ19Del
In short: as §1

[7] = BaF3 cell line stably transfected with EGFR Δ19Del/T790M/C797S, read-out: Δ19Del/T790M/ C797S growth inhibitory activity IC50
[8] = BaF3 cell line stably transfected with EGFR L858R/T790M/C797S, read-out: L858R/T790M/ C797S growth inhibitory activity IC50
[9] = BaF3 cell line stably transfected with EGFR Δ19Del/T790M, read-out: Δ19Del/ T790M growth inhibitory activity IC50
[10] = BaF3 cell line stably transfected with EGFR L858R, read-out: L858R growth inhibitory activity IC50
[11] = BaF3 cell line stably transfected with EGFR L858R/T790M, read-out: L858R/ T790M growth inhibitory activity IC50
[12] = BaF3 cell line stably transfected with EGFR Δ19Del, read-out: Δ19Del growth inhibitory activity IC50
[13] = BaF3 cells stably transfected with EGFR Δ19Del/T790M/C797S, read-out: IC50, growth inhibition, Δ19Del/T790M/C797S
[14] = BaF3 cells stably transfected with EGFR L858R/T790M/C797S, read-out: IC50, growth inhibition, L858R/T790M/C797S
[15] = BaF3 cells stably transfected with EGFR Δ19Del/T790M, read-out: IC50, growth inhibition, Δ19Del/T790M
[16] = BaF3 cells stably transfected with EGFR L858R, read-out: IC50, growth inhibition, L858R
[17] = BaF3 cells stably transfected with EGFR L858R/T790M, read-out: IC50, growth inhibition, L858R/T790M
[18] = BaF3 cells stably transfected with EGFR Δ19Del, read-out: IC50, growth inhibition, Δ19Del

T2 sequence (P00533 25-1210 T790M/C797S/L858R): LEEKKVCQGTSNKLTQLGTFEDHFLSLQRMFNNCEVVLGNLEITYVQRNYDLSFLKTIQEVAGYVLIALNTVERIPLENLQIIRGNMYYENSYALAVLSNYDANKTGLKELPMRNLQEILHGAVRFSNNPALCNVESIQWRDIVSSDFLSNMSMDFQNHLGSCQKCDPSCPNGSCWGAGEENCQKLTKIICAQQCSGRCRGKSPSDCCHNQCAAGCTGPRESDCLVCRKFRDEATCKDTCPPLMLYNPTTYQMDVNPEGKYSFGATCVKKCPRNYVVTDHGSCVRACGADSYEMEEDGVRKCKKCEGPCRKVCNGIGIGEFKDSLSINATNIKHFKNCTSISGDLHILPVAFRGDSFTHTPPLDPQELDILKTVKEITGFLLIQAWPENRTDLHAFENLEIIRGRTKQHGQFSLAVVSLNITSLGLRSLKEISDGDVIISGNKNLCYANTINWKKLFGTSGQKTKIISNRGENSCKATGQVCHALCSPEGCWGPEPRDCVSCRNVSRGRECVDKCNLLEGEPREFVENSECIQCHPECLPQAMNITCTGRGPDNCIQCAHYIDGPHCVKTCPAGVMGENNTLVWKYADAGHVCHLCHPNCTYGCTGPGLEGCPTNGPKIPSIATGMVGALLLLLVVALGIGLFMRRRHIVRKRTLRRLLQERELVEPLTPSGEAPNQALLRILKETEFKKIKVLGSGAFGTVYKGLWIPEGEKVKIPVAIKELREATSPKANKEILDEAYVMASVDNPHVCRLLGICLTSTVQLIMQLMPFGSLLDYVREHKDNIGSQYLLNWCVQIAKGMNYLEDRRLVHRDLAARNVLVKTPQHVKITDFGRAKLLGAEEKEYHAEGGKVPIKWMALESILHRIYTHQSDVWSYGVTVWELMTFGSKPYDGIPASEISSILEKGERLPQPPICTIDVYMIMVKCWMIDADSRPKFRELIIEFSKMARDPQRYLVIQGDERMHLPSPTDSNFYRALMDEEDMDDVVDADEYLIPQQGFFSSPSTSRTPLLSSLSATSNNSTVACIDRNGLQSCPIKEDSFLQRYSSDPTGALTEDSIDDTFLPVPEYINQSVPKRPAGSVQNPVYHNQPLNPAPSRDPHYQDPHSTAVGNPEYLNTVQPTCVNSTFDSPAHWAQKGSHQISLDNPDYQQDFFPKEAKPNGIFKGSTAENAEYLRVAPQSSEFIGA
T5 sequence (P00533 25-1210 T790M/L858R): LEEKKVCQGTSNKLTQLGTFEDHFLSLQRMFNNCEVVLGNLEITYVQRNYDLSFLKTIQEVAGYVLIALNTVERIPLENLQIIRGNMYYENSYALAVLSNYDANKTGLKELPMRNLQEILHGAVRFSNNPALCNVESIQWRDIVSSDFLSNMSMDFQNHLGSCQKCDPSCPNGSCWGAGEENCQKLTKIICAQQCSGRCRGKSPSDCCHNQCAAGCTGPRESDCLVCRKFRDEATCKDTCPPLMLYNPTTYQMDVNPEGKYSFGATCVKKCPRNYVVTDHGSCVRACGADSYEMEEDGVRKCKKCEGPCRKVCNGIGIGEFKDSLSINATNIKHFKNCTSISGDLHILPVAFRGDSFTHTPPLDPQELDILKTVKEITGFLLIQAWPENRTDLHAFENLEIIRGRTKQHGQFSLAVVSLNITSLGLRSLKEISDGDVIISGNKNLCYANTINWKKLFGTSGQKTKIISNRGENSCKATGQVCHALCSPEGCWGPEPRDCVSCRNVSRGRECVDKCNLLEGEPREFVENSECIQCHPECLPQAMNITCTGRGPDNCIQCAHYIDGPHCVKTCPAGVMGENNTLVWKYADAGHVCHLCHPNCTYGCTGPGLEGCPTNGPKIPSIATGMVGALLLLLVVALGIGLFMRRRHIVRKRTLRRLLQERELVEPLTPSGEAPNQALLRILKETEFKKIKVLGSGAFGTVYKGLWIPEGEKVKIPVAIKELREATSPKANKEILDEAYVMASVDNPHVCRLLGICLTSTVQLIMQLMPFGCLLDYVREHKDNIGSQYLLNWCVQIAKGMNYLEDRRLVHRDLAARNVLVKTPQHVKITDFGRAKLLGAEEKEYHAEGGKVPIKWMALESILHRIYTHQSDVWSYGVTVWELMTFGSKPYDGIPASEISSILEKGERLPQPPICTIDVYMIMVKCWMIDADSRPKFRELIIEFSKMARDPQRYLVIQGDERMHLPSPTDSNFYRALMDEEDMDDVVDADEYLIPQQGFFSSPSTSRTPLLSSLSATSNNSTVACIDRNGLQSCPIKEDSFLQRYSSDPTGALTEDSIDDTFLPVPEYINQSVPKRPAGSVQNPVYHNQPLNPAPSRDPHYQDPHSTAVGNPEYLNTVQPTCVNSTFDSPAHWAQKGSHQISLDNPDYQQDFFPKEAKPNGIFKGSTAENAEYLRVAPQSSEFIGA
T4 sequence (P00533 25-1210 L858R): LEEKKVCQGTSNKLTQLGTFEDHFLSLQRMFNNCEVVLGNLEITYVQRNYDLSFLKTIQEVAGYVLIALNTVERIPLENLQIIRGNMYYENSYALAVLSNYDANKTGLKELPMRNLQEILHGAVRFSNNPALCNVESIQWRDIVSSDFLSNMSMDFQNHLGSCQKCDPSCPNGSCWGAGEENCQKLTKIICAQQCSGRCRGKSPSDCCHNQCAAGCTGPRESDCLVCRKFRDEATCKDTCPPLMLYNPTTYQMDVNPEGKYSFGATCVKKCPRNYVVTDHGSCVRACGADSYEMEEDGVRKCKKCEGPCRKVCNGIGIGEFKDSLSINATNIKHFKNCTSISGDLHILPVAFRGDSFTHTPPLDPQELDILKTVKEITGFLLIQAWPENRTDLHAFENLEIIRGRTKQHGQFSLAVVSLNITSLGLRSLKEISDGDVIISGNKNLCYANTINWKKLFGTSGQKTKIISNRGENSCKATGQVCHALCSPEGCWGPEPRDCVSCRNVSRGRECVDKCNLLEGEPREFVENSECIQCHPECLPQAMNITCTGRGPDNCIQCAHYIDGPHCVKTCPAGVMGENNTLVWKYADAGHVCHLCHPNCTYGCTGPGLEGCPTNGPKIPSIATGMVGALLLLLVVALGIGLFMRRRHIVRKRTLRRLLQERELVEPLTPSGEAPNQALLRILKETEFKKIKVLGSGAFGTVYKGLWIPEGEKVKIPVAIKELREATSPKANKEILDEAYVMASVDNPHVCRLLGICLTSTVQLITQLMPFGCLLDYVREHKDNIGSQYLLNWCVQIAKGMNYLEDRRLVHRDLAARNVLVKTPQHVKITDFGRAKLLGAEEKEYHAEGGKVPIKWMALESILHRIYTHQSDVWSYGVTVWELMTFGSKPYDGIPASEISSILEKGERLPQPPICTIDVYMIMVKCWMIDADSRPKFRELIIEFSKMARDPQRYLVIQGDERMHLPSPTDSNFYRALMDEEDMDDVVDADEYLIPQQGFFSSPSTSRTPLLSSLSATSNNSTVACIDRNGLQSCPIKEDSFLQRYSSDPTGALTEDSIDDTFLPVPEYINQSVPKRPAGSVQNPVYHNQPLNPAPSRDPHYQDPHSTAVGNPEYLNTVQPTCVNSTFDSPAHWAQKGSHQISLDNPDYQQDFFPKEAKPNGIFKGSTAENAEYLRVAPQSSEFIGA
T1 sequence (P00533 with tags, fused parts or gaps DEL746-750/T790M/C797S, form open): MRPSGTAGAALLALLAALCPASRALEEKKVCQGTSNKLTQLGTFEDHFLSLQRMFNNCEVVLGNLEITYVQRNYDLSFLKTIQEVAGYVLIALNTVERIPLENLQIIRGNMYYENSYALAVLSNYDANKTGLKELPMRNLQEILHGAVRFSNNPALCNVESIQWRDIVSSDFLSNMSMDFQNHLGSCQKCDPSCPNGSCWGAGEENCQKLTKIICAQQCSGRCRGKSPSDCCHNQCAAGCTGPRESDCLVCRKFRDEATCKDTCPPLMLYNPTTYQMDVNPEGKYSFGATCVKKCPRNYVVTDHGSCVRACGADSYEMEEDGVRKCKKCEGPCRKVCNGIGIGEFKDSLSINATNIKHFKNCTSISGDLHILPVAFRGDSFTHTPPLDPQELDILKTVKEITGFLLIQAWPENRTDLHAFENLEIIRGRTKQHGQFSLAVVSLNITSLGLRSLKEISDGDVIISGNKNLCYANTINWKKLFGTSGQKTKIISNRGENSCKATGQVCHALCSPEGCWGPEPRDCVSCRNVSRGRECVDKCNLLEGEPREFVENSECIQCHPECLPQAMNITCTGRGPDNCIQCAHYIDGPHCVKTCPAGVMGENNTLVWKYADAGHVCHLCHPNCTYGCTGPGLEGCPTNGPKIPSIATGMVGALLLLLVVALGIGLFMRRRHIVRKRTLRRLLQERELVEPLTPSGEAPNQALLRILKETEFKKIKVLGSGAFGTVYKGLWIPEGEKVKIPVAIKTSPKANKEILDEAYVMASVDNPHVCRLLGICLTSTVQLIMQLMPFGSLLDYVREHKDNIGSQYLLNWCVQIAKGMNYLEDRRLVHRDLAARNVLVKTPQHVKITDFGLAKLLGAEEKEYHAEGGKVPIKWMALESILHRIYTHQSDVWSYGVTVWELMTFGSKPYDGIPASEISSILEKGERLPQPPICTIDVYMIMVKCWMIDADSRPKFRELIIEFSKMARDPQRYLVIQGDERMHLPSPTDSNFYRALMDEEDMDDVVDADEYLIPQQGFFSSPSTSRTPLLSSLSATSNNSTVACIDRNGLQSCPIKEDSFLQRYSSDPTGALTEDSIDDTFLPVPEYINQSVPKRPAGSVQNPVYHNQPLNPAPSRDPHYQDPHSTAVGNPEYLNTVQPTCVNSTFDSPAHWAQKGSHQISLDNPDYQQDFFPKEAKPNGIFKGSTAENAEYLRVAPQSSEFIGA

| SMILES | IC50 [1, 7] [nM] | IC50 [2, 8] [nM] | IC50 [3, 9] [nM] | IC50 [4, 10] [nM] | IC50 [5, 11] [nM] | IC50 [6, 12] [nM] | IC50 [1, 13] [nM] | IC50 [2, 14] [nM] | IC50 [3, 15] [nM] | IC50 [4, 16] [nM] | IC50 [5, 17] [nM] | IC50 [6, 18] [nM] |
| --- | --- | --- | --- | --- | --- | --- | --- | --- | --- | --- | --- | --- |
| COc1cc(N2CCC(N(C)C)C2)ccc1Nc1ncc(Br)c(Nc2ccc3nccnc3c2N(C)S(C)(=O)=O)n1 (stereo not drawn) [Compound I-43] |  |  |  |  |  |  | ≤ 50 | ≤ 50 | ≤ 50 | 50 to 500 | ≤ 50 | 50 to 500 |
| COc1cc(N2CCC(N3CCN(C)CC3)CC2)c(C)cc1Nc1ncc([N+](=O)[O-])c(Nc2ccc3nccnc3c2N(C)S(C)(=O)=O)n1 [Compound I-31] |  |  |  |  |  |  | ≤ 50 | ≤ 50 | 50 to 500 | ≤ 50 | ≤ 50 | 50 to 500 |
| CCc1cc(Nc2ncc(Cl)c(Nc3ccc4nccnc4c3N(CC)S(C)(=O)=O)n2)c(OC(F)(F)F)cc1N1CCC(N2CCN(C)CC2)CC1 [Compound I-111] |  |  |  |  |  |  | ≤ 50 | 50 to 500 | 50 to 500 | 50 to 500 | ≤ 50 | 50 to 500 |
| CCc1cc(Nc2ncc([N+](=O)[O-])c(Nc3ccc4nccnc4c3N(C)S(C)(=O)=O)n2)c(OC)cc1N1CCC(N(C)C)C1 (stereo not drawn) [Compound I-196] |  |  |  |  |  |  | ≤ 50 | 50 to 500 | 50 to 500 | 50 to 500 | 50 to 500 | 50 to 500 |
| COc1cc(N2CCC(N3CCN(C)CC3)CC2)ccc1Nc1ncc(Cl)c(Nc2ccc3nccnc3c2N(C)S(C)(=O)=O)n1 [Compound I-18] |  |  |  |  |  |  | 50 to 500 | 50 to 500 | 50 to 500 | 50 to 500 | ≤ 50 | 50 to 500 |
| COc1cc(N2CCC(N3CCN(C)CC3)CC2)ccc1Nc1ncc(F)c(Nc2ccc3nccnc3c2N(C)S(C)(=O)=O)n1 [Compound I-24] |  |  |  |  |  |  | 50 to 500 | 50 to 500 | 50 to 500 | 50 to 500 | 50 to 500 | 50 to 500 |
| COc1cc(N2CCC(N3CCN(C)CC3)CC2)ccc1Nc1ncc([N+](=O)[O-])c(Nc2ccc3nccnc3c2N(C)S(C)(=O)=O)n1 [Compound I-30] |  |  |  |  |  |  | 50 to 500 | 500 to 2500 | 500 to 2500 | 500 to 2500 | 50 to 500 | 500 to 2500 |
| COc1cc(N2CCC(N3CCN(C)CC3)CC2)c(CC2CC2)cc1Nc1ncc(Br)c(Nc2ccc3nccnc3c2N(C)S(=O)(=O)C2CC2)n1 [Compound I-220] |  |  |  |  |  |  | ≤ 50 | ≤ 50 | 50 to 500 | 50 to 500 | 50 to 500 | 50 to 500 |
| CCc1cc(Nc2ncc(Cl)c(Nc3ccc4nccnc4c3N(C3CC3)S(C)(=O)=O)n2)c(OC)cc1N1CCC(N(C)C)CC1 [Compound I-162] |  |  |  |  |  |  | ≤ 50 | ≤ 50 | ≤ 50 | ≤ 50 | ≤ 50 | ≤ 50 |
| COc1cc(N2CCC(N3CCN(C)CC3)CC2)c(CC2CC2)cc1Nc1ncc(Cl)c(Nc2ccc3nccnc3c2N(C)S(=O)(=O)C(C)C)n1 [Compound I-254] |  |  |  |  |  |  | 50 to 500 | 50 to 500 | ≤ 50 | 50 to 500 | 50 to 500 | 50 to 500 |
| CCS(=O)(=O)N(C)c1c(Nc2nc(Nc3ccc(N4CCC(N5CCN(C)CC5)CC4)cc3OC)ncc2Br)ccc2nccnc12 [Compound I-214] |  |  |  |  |  |  | ≤ 50 | 50 to 500 | ≤ 50 | 50 to 500 | ≤ 50 | 50 to 500 |
| CCN(c1c(Nc2nc(Nc3cc(C)c(N4CCC(N5CCN(C)CC5)CC4)cc3OC)ncc2Br)ccc2nccnc12)S(C)(=O)=O [Compound I-94] |  |  |  |  |  |  | ≤ 50 | ≤ 50 | ≤ 50 | ≤ 50 | ≤ 50 | ≤ 50 |
| COc1cc(N2CCN(C)CC2)c(C)cc1Nc1ncc(Cl)c(Nc2ccc3nccnc3c2N(C2CC2)S(C)(=O)=O)n1 [Compound I-244] |  |  |  |  |  |  | ≤ 50 | ≤ 50 | 50 to 500 | ≤ 50 | ≤ 50 | ≤ 50 |
| COc1cc(N2CCC(N(C)C)CC2)c(C)cc1Nc1ncc(Cl)c(Nc2ccc3nccnc3c2N(C2CC2)S(C)(=O)=O)n1 [Compound I-243] |  |  |  |  |  |  | 50 to 500 | 50 to 500 | ≤ 50 | ≤ 50 | ≤ 50 | ≤ 50 |
| C=Cc1cc(Nc2ncc(Cl)c(Nc3ccc4nccnc4c3N(C)S(C)(=O)=O)n2)c(OC(F)(F)F)cc1N1CCC(N2CCN(C)CC2)CC1 [Compound I-23] |  |  |  |  |  |  | ≤ 50 | ≤ 50 | ≤ 50 | ≤ 50 | ≤ 50 | ≤ 50 |

The next lines start with the values.

| IC50 [1, 7] [nM] | IC50 [2, 8] [nM] | IC50 [3, 9] [nM] | IC50 [4, 10] [nM] | IC50 [5, 11] [nM] | IC50 [6, 12] [nM] | IC50 [1, 13] [nM] | IC50 [2, 14] [nM] | IC50 [3, 15] [nM] | IC50 [4, 16] [nM] | IC50 [5, 17] [nM] | IC50 [6, 18] [nM] | SMILES |
| --- | --- | --- | --- | --- | --- | --- | --- | --- | --- | --- | --- | --- |
| ≤ 50 | ≤ 50 | ≤ 50 | ≤ 50 | ≤ 50 | 50 to 500 |  |  |  |  |  |  | CN1CCN(C2CCN(c3c(F)cc(Nc4ncc(Cl)c(Nc5ccc6nccnc6c5N(C)S(C)(=O)=O)n4)cc3F)CC2)CC1 [Compound I-357] |
| ≤ 50 | ≤ 50 | ≤ 50 | 50 to 500 | 50 to 500 | 50 to 500 |  |  |  |  |  |  | CCc1cc(Nc2ncc(C(C)C)c(Nc3ccc4nccnc4c3N(C)S(C)(=O)=O)n2)c(OC)cc1N1CCC(N(C)C)C1 (stereo not drawn) [Compound I-331] |
| ≤ 50 | ≤ 50 | ≤ 50 | ≤ 50 | ≤ 50 | 50 to 500 |  |  |  |  |  |  | CCc1cc(Nc2ncc(Br)c(Nc3ccc4nccnc4c3NS(C)(=O)=O)n2)c(OC)nc1N1CCC(N2CCN(C)CC2)CC1 [Compound I-404] |
| ≤ 50 | ≤ 50 | ≤ 50 | ≤ 50 | ≤ 50 | 50 to 500 |  |  |  |  |  |  | CN1CCN(C2CCN(c3c(F)cc(Nc4ncc(Br)c(Nc5ccc6nccnc6c5N(C)S(C)(=O)=O)n4)cc3F)CC2)CC1 [Compound I-354] |
| ≤ 50 | ≤ 50 | ≤ 50 | 50 to 500 | ≤ 50 | ≤ 50 |  |  |  |  |  |  | COc1cc(N2CCC(N3CCN(C)CC3)CC2)c(C)cc1Nc1ncc(Br)c(Nc2ccc3nccnc3c2NS(C)(=O)=O)n1 [Compound I-402] |
| ≤ 50 | ≤ 50 | ≤ 50 | ≤ 50 | ≤ 50 | ≤ 50 |  |  |  |  |  |  | COc1ccc(N2CCC(O)CC2)cc1Nc1ncc(Br)c(Nc2ccc3nccnc3c2N(C2CC2)S(C)(=O)=O)n1 [Compound I-380] |
| 50 to 500 | 50 to 500 | 50 to 500 | 50 to 500 | 50 to 500 | 500 to 2500 |  |  |  |  |  |  | CCc1cc(Nc2ncc(Cl)c(Nc3ccc4nccnc4c3N(C)S(C)(=O)=O)n2)c(OC)cc1C(=O)N1CCC(N2CCN(C)CC2)CC1 [Compound I-358] |
| ≤ 50 | 50 to 500 | 50 to 500 | 50 to 500 | 50 to 500 | 50 to 500 |  |  |  |  |  |  | CCc1cc(Nc2ncc(Br)c(Nc3ccc4nccnc4c3N(C)S(C)(=O)=O)n2)c(OC)cc1C(=O)N1CCC(N2CCN(C)CC2)CC1 [Compound I-355] |
| ≤ 50 | ≤ 50 | ≤ 50 | ≤ 50 | ≤ 50 | 50 to 500 |  |  |  |  |  |  | CCc1cc(Nc2ncc(Br)c(Nc3ccc4nccnc4c3N(C3CC3)S(C)(=O)=O)n2)c(OC)cc1N1CCN(C)CC1 [Compound I-310] |
| ≤ 50 | ≤ 50 | ≤ 50 | ≤ 50 | ≤ 50 | ≤ 50 |  |  |  |  |  |  | CCc1cc(Nc2ncc(Br)c(Nc3ccc4nccnc4c3NS(C)(=O)=O)n2)c(OC)cc1N1CCN(C)CC1 [Compound I-411] |
| ≤ 50 | ≤ 50 | ≤ 50 | 50 to 500 | ≤ 50 | 50 to 500 |  |  |  |  |  |  | COc1cc(N2CCC(N3CCN(C)CC3)CC2)c(C)cc1Nc1ncc(Br)c(Nc2ccc3nccnc3c2NS(=O)(=O)C(C)C)n1 [Compound I-414] |
